Reference: BindingDB's records for doi:10.1021/jm501787c (Duquesne University, 2015)

Assays:
[1] = Binding affinity to human RFC expressed in Chinese hamster PC43-10 cells assessed as cell growth inhibition after 96 hrs by CellTiter-Blue assay
[2] = Binding affinity to human FRalpha expressed in Chinese hamster RT16 cells assessed as cell growth inhibition after 96 hrs by CellTiter-Blue assay
[3] = Binding affinity to human PCFT expressed in Chinese hamster R2/PCFT4 cells assessed as cell growth inhibition after 96 hrs by CellTiter-Blue assay

| Structure (SMILES) | IC50 [1] | IC50 [2] | IC50 [3] |
| --- | --- | --- | --- |
| Nc1nc2[nH]cc(Cc3ccc(C(=O)N[C@@H](CCC(=O)O)C(=O)O)s3)c2c(=O)[nH]1 | > 1000 nM | > 1000 nM | > 1000 nM |
| Nc1nc2[nH]cc(CCc3ccc(C(=O)N[C@@H](CCC(=O)O)C(=O)O)s3)c2c(=O)[nH]1 | 60 nM | 550 nM | 80 nM |
| Nc1nc2[nH]cc(CCCc3ccc(C(=O)N[C@@H](CCC(=O)O)C(=O)O)s3)c2c(=O)[nH]1 | 116 nM | 109 nM | 312 nM |
| Nc1nc2[nH]cc(CCCCc3ccc(C(=O)N[C@@H](CCC(=O)O)C(=O)O)s3)c2c(=O)[nH]1 | 38 nM | 49 nM | 141 nM |
| Nc1nc2[nH]cc(CCCCCc3ccc(C(=O)N[C@@H](CCC(=O)O)C(=O)O)s3)c2c(=O)[nH]1 | 243 nM | 46 nM | 57 nM |
| Nc1nc2[nH]cc(CCCCCCc3ccc(C(=O)N[C@@H](CCC(=O)O)C(=O)O)s3)c2c(=O)[nH]1 | > 1000 nM | > 1000 nM | > 1000 nM |
| Nc1nc2[nH]c(CCCCc3ccc(C(=O)N[C@@H](CCC(=O)O)C(=O)O)s3)cc2c(=O)[nH]1 [(S)-2-({5-[4-(2-Amino-4-oxo-4,7-dihydro-3H-pyrrolo[2,3-d]-pyrimidin-6-yl)-butyl]-thiophene-2-carbonyl}-amino)-pentanedioicAcid] | > 1000 nM | 1.8 nM | – |
